Assay results reported in publication PMC7546796, “Myricanol Inhibits the Type III Secretion System of Salmonella enterica Serovar Typhimurium by Interfering With the DNA-Binding Activity of HilD” (Frontiers in Microbiology, 2020).

Molecular target: HilD (Salmonella enterica, UniProt P0CL08)
Assay: microscale thermophoresis with dye-labeled purified HilD; supported by thermal shift, DARTS and EMSA
Format: binding

Chain of HilD (P0CL08 whole entry): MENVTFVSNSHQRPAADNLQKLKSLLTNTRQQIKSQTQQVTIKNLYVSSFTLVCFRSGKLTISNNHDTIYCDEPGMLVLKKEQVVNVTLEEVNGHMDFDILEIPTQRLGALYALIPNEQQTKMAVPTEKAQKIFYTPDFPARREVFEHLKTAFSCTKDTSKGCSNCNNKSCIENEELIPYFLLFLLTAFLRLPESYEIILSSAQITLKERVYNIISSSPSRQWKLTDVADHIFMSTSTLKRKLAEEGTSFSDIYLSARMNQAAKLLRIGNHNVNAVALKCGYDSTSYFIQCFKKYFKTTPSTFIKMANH

COc1c2cc(c(O)c1OC)CCCC[C@@H](O)CCc1ccc(O)c-2c1 [compound 1, myricanol]
Kd: 1380 ± 530 nM
